Results: patent US9527828B2, “Method for expanding hematopoietic stem cells using heterocyclic compound” (Nissan Chemical Industries, Ltd., priority 2007, dated 2016)

Tested on: CD34^+CD38^− cells
Assay: Expansion of CD34+CD38− cells from human cord blood-derived CD34+ cells (Example 2)
Format: cell-based
Details: 1 μg/mL compound, 50 ng/mL SCF, StemSpan SFEM, 7 days, based on number of CD34+CD38− cells in the absence of compound; for fold induction at 1 µg/mL: Homo sapiens, 168 h, read-out: Expansion efficiency
Protocol: The human cord blood-derived CD34^+ cells collected or purchased in Example 1 were plated on a 24-well plate (TPP) (10000 cells/1/mL/well). As the culture medium, StemSpan SFEM (Stemcell Technologies) containing 50 ng/mL SCF (Peprotech) was used, and Compounds No. 1 to 133 dissolved in dimethyl sulfoxide were added in an amount of 0.1% (v/v) to a final concentration of 1 μg/mL.
After the cells were incubated in liquid culture at 37° C. for 7 days in a CO2 incubator (5% CO2), the number of viable cells was counted by trypan blue assay. The number of CD34^+CD38^− cells was calculated as follows. After the incubation, the cells in the liquid culture was stained with a CD34 antibody (APC, Becton, Dickinson and Company) and a CD38 antibody (PE, Becton, Dickinson and Company), then washed with PBS(−) containing 2% (v/v) FBS and stained with propidium iodide (Sigma-Aldrich Japan) added to a final concentration of 5 μg/mL. The stained cells were analyzed with a flow cytometer JSAN (Bay Bioscience) to determined the proportion of CD34^+CD38^− cells, which was multiplied by the number of viable cells to calculate the number of CD34^+CD38^− cells.
The expansion efficiencies in the presence of 1 μg/mL of compounds based on the number of CD34^+CD38^− cells in the absence of them are shown in Tables 2 and 3 on a scale of A for expansion efficiencies of 10 or greater, B for expansion efficiencies of at least 5 and less than 10, and C for expansion efficiencies of at least 3 and less than 5.

SMILES | fold induction at 1 µg/mL | Expansion efficiency
C/C(=N\NC(=O)c1ccc(C(=O)NCCN2CCOCC2)s1)c1csc(-c2ccc(Br)cc2)c1O [compound 34] | 3 to 5 | 
C/C(=N\NC(=O)c1ccc(C(=O)NCc2cscn2)s1)c1csc(-c2ccc(Cl)c(Cl)c2)c1O [compound 35] | 5 to 10 | 
C/C(=N\NC(=O)c1ccc(C(=O)NCc2ncccn2)s1)c1csc(-c2ccc(Cl)c(Cl)c2)c1O [compound 36] | ≥ 10 | 
C/C(=N\NC(=O)c1ccc(C(=O)NCc2cc(C)on2)s1)c1csc(-c2ccc(Cl)c(Cl)c2)c1O [compound 38] | ≥ 10 | 
C/C(=N\NC(=O)c1ccc(C(=O)NCc2cnc(C)cn2)s1)c1csc(-c2ccc(Cl)c(Cl)c2)c1O [compound 39] | 5 to 10 | 
C/C(=N\NC(=O)c1ccc(C(=O)NCc2ccno2)s1)c1csc(-c2ccc(Cl)c(Cl)c2)c1O [compound 40] | 5 to 10 | 
C/C(=N\NC(=O)c1ccc(C(=O)NCc2c(C)nn(C)c2C)s1)c1csc(-c2ccc(Cl)c(Cl)c2)c1O [compound 41] | 5 to 10 | 
COc1c(/C(C)=N/NC(=O)c2ccc(C(=O)NCc3ccncc3)s2)csc1-c1ccc(Cl)c(Cl)c1 [compound 42] | 5 to 10 | 
C/C(=N\NC(=O)c1ccc(C(=O)NCc2ccnnc2)s1)c1csc(-c2ccc(Cl)c(Cl)c2)c1O [compound 43] | ≥ 10 | 
C/C(=N\NC(=O)c1ccc(C(=O)NCc2cccnn2)s1)c1csc(-c2ccc(Cl)c(Cl)c2)c1O [compound 44] | 5 to 10 | 
C/C(=N\NC(=O)c1ccc(C(=O)NCc2ccnn2C)s1)c1csc(-c2ccc(C(F)(F)F)cc2)c1O [compound 45] | 5 to 10 | 
C/C(=N\NC(=O)c1ccc(C(=O)NCc2cc(C)on2)s1)c1csc(-c2ccc(C(F)(F)F)cc2)c1O [compound 46] | 5 to 10 | 
C/C(=N\NC(=O)c1ccc(C(=O)NCc2cc(Cl)no2)s1)c1csc(-c2ccc(Cl)c(Cl)c2)c1O [compound 47] | 5 to 10 | 
C/C(=N\NC(=O)c1ccc(C(=O)NCc2ccno2)s1)c1csc(-c2ccc(C(F)(F)F)cc2)c1O [compound 48] | 5 to 10 | 
C/C(=N\NC(=O)c1ccc(C(=O)NCc2c(C)nn(C)c2C)s1)c1csc(-c2ccc(C(F)(F)F)cc2)c1O [compound 49] | 5 to 10 | 
COc1cc(CNC(=O)c2ccc(C(=O)N/N=C(\C)c3csc(-c4ccc(C(F)(F)F)cc4)c3O)s2)on1 [compound 50] | 5 to 10 | 
C/C(=N\NC(=O)c1ccc(C(=O)NCc2cncn2C)s1)c1csc(-c2ccc(Cl)c(Cl)c2)c1O [compound 51] | 5 to 10 | 
C/C(=N\NC(=O)c1ccc(C(=O)NCc2cncn2C)s1)c1csc(-c2ccc(C(F)(F)F)cc2)c1O [compound 52] | 5 to 10 | 
C/C(=N\NC(=O)c1ccc(C(=O)NCc2cnn(C)n2)s1)c1csc(-c2ccc(Cl)c(Cl)c2)c1O [compound 53] | 5 to 10 | 
C/C(=N\NC(=O)c1ccc(C(=O)NCc2cnn(C)n2)s1)c1csc(-c2ccc(C(F)(F)F)cc2)c1O [compound 54] | 5 to 10 | 

SMILES | fold induction at 1 µg/mL | Expansion efficiency
C/C(=N\NC(=O)c1ccc(C(=O)NCc2cn(C)cn2)s1)c1csc(-c2ccc(C(F)(F)F)cc2)c1O [compound 55] | 5 to 10 | 
C/C(=N\NC(=O)c1ccc(C(=O)NCc2cc(C)n(C)n2)s1)c1csc(-c2ccc(C(F)(F)F)cc2)c1O [compound 56] | 5 to 10 | 
C/C(=N\NC(=O)c1ccc(C(=O)NCc2cc[n+]([O-])cc2)s1)c1csc(-c2ccc(C(F)(F)F)cc2)c1O [compound 57] | 5 to 10 | 
C/C(=N\NC(=O)c1ccc(C(=O)NCc2ccnn2C)s1)c1csc(-c2ccc(Cl)cc2)c1O [compound 58] | 5 to 10 | 
C/C(=N\NC(=O)c1ccc(C(=O)NCc2ccc(S(C)(=O)=O)cc2)s1)c1csc(-c2ccc(Cl)c(Cl)c2)c1O [compound 59] | 5 to 10 | 
C/C(=N\NC(=O)c1ccc(C(=O)NCc2ccc(C#N)cc2)s1)c1csc(-c2ccc(Cl)c(Cl)c2)c1O [compound 60] | ≥ 10 | 
C/C(=N\NC(=O)c1ccc(C(=O)NCc2ccc(S(N)(=O)=O)cc2)s1)c1csc(-c2ccc(Cl)c(Cl)c2)c1O [compound 61] | 5 to 10 | 
CCCNC(=O)c1ccc(C(=O)N/N=C(\C)c2csc(-c3ccc(Cl)c(Cl)c3)c2O)s1 [compound 62] | 3 to 5 | 
C/C(=N\NC(=O)c1ccc(C(=O)NC2CCCC2)s1)c1csc(-c2ccc(Cl)c(Cl)c2)c1O [compound 63] | 3 to 5 | 
C/C(=N\NC(=O)c1ccc(C(=O)NCCCN(C)C)s1)c1csc(-c2ccc(Cl)c(Cl)c2)c1O [compound 64] | 3 to 5 | 
C/C(=N\NC(=O)c1ccc(C(=O)NCCO)s1)c1csc(-c2ccc(Cl)c(Cl)c2)c1O [compound 65] | 5 to 10 | 
C/C(=N\NC(=O)c1ccc(C(=O)NCCN(C)C)s1)c1csc(-c2ccc(Cl)c(Cl)c2)c1O [compound 66] | 3 to 5 | 
C/C(=N\NC(=O)c1ccc(C(=O)NCCN2CCCC2)s1)c1csc(-c2ccc(Cl)c(Cl)c2)c1O [compound 67] | 3 to 5 | 
C/C(=N\NC(=O)c1ccc(C(=O)NC2CCC(O)CC2)s1)c1csc(-c2ccc(Cl)c(Cl)c2)c1O (stereo not shown) [compound 68] | 5 to 10 | 
CCCCCNC(=O)c1ccc(C(=O)N/N=C(\C)c2csc(-c3ccc(Cl)c(Cl)c3)c2O)s1 [compound 69] | 3 to 5 | 
C/C(=N\NC(=O)c1ccc(C(=O)NCCO)s1)c1csc(-c2ccc(Cl)cc2)c1O [compound 70] |  | B (B for expansion efficiencies of at least 5 and less than 10)
CCN(CC)C(=O)c1ccc(C(=O)N/N=C(\C)c2csc(-c3ccc(Cl)cc3)c2O)s1 [compound 71] | 5 to 10 | 
C/C(=N\NC(=O)c1ccc(C(=O)NCc2ccccn2)s1)c1csc(-c2ccc(Cl)c(Cl)c2)c1O [compound 72] | 5 to 10 | 
C/C(=N\NC(=O)c1ccc(C(=O)NCCCCO)s1)c1csc(-c2ccc(Cl)c(Cl)c2)c1O [compound 73] | 5 to 10 | 
C/C(=N\NC(=O)c1ccc(C(=O)NCc2ccccn2)s1)c1csc(-c2cccc(Cl)c2)c1O [compound 75] | 3 to 5 | 

SMILES | fold induction at 1 µg/mL | Expansion efficiency
CCCN(C)C(=O)c1ccc(C(=O)N/N=C(\C)c2csc(-c3ccc(Cl)cc3)c2O)s1 [compound 76] | 3 to 5 | 
C/C(=N\NC(=O)c1ccc(C(=O)NC(C)C)s1)c1csc(-c2ccc(Cl)cc2)c1O [compound 77] | 5 to 10 | 
C/C(=N\NC(=O)c1ccc(C(=O)NC(C)C)s1)c1csc(-c2cccc(Cl)c2)c1O [compound 78] | 5 to 10 | 
C/C(=N\NC(=O)c1ccc(C(=O)N(C)Cc2ccccc2)s1)c1csc(-c2cccc(Cl)c2)c1O [compound 79] | 3 to 5 | 
C/C(=N\NC(=O)c1ccc(C(=O)N(C)Cc2ccccn2)s1)c1csc(-c2ccc(Cl)c(Cl)c2)c1O [compound 80] | 3 to 5 | 
CCN(C)C(=O)c1ccc(C(=O)N/N=C(\C)c2csc(-c3ccc(Cl)c(Cl)c3)c2O)s1 [compound 81] | 3 to 5 | 
C/C(=N\NC(=O)c1ccc(C(=O)NCc2cn(C)cn2)s1)c1csc(-c2ccc(OC(F)(F)F)cc2)c1O [compound 82] | 3 to 5 | 
C/C(=N\NC(=O)c1ccc(C(=O)NCc2ccc(C(=O)O)cc2)s1)c1csc(-c2ccc(Cl)c(Cl)c2)c1O [compound 83] | 3 to 5 | 
C/C(=N\NC(=O)c1ccc(C(=O)NCc2ccncn2)s1)c1csc(-c2ccc(Cl)c(Cl)c2)c1O [compound 84] | 5 to 10 | 
CCCN(CC)C(=O)c1ccc(C(=O)N/N=C(\C)c2csc(-c3ccc(Cl)c(Cl)c3)c2O)s1 [compound 85] | 3 to 5 | 
C/C(=N\NC(=O)c1ccc(C(=O)NCc2ccc(C(N)=O)cc2)s1)c1csc(-c2ccc(C(C)(C)C)cc2)c1O [compound 86] | ≥ 10 | 
C/C(=N\NC(=O)c1ccc(C(=O)NCc2ccc(C(N)=O)cc2)s1)c1csc(-c2ccc(Br)cc2)c1O [compound 87] | ≥ 10 | 
C/C(=N\NC(=O)c1ccc(C(=O)NCc2ccc(C(N)=O)cc2)s1)c1csc(-c2ccc(C(F)(F)F)cc2)c1O [compound 88] | ≥ 10 | 
C/C(=N\NC(=O)c1ccc(C(=O)NCc2ccc(C(N)=O)cc2)s1)c1csc(-c2ccc(Cl)cc2)c1O [compound 89] | ≥ 10 | 
C/C(=N\NC(=O)c1ccc(C(=O)NCc2ccc(C(N)=O)cc2)s1)c1csc(-c2ccc(OC(F)(F)F)cc2)c1O [compound 90] | ≥ 10 | 
COc1ccc(-c2scc(/C(C)=N/NC(=O)c3ccc(C(=O)NCc4ccc(C(N)=O)cc4)s3)c2O)cc1 [compound 91] | ≥ 10 | 
C/C(=N\NC(=O)c1ccc(C(=O)NCc2cccc(C(N)=O)c2)s1)c1csc(-c2ccc(Cl)c(Cl)c2)c1O [compound 92] | ≥ 10 | 
C/C(=N\NC(=O)c1ccc(C(=O)NCc2cccc(C(N)=O)c2)s1)c1csc(-c2ccc(C(C)(C)C)cc2)c1O [compound 93] | ≥ 10 | 
